Experimental data published in publication PMC9250534, “Synthesis and direct assay of large macrocycle diversities by combinatorial late-stage modification at picomole scale” (Nature Communications, 2022).
Numbered stars: 1 amine (or outer) side, 2 acyl side, 3 side chain; on linkers, the order of the positions; unused ones are H or OH. Bridge positions count the residues as written; N and C are the ends. Square brackets hold non-standard residues; d marks the D form. Peptide text beside a SMILES is read from it. * marks the point of attachment. Pro(4S-NHCO(5-Cl-2-thienyl)) = O=C(N[C@@H]1CN[C@H](C(=O)O)C1)c1ccc(Cl)s1; Benzoyl(4-Cl) = O=C(c1ccc(Cl)cc1)*; Phenoxyacetyl = O=C(COc1ccccc1)*; Cysteamide = C(CS[*:3])N[*:1]; X1 = O=C(/C=C/c1ccccc1)*; Dap = NC[C@H](N)C(=O)O; Mpa = O=C(O)CCS

Target: MDM2 (Homo sapiens, UniProt Q00987)
Sequence (Q00987 whole entry): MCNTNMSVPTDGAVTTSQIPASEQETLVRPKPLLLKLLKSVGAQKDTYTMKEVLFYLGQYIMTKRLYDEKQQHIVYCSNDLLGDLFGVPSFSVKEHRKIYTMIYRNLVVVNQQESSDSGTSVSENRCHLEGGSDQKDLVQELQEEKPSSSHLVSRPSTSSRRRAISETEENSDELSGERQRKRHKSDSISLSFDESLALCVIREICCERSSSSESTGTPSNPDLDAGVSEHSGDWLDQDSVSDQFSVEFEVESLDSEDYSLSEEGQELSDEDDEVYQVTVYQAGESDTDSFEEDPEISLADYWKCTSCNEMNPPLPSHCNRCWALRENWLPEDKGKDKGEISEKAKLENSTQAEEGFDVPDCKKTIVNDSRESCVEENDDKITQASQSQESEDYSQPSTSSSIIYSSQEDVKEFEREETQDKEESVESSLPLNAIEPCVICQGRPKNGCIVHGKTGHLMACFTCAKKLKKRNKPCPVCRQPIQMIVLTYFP
Experiment: MDM2 binding screen: displacement of fluorescent p53 peptide probe FP53 (fluorescence polarization)
Details: for fraction fluorescent probe displaced, Screen: initial screen; for fraction fluorescent probe displaced, Screen / fraction fluorescent probe displaced, Replicate: crude macrocycle reactions
Summary of the method: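 Single-point screen: one fluorescence anisotropy reading at 25 °C (485 nm excitation, 535 nm emission) per macrocycle. Crude macrocycle reactions, final 10 µM, were scored for displacing the fluorescent p53 peptide from human MDM2.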

[1] = 10 µM macrocycle concentration, crude acylated macrocycle (scaffold Mpa-AA1-AA2-AA3 x carboxylic acid), p53-based fluorescent peptide, human MDM2

Row | Compound | fraction fluorescent probe displaced, Screen (Acid 25) | fraction fluorescent probe displaced, Replicate (Acid 25, replicate) | fraction fluorescent probe displaced, Screen (Acid 91) | fraction fluorescent probe displaced, Replicate (Acid 91, replicate) | further results
1 | O=C1CCSSCCNC(=O)C2CN(C(=O)c3ccc(Cl)cc3)CCN2C(=O)C(Cc2ccccc2)NC(=O)CCN1 (mixture of isomers) [X B2 F D7 Acid 25] | -0.07 | 0.0465 |  |  | 
2 | O=C(N[C@H]1C[C@H]2C(=O)NCCSSCCC(=O)N3CCC[C@@H](C3)C(=O)N[C@@H](Cc3c[nH]c4ccccc34)C(=O)N2C1)c1ccc(Cl)s1 [X B4 W D5 Acid 14] |  |  |  |  | fraction fluorescent probe displaced, Screen (Acid 14): 0.08; fraction fluorescent probe displaced, Replicate (Acid 14, replicate): -0.03
3 | O=C1CCSSCCNC(=O)c2cccc(c2)CNC(=O)C2(CCN(C(=O)/C=C/c3ccccc3)CC2)NC(=O)[C@H](Cc2c[nH]c3ccccc23)N1 [X W D6 B5 Acid 91] |  |  | 0.40 | 0.34 | 
4 | O=C1CCNC(=O)C2CN(C(=O)c3ccc(Cl)s3)CCN2C(=O)C(Cc2c[nH]c3ccccc23)NC(=O)CCSSCCN1 (stereo not drawn) [X W D7 B2 Acid 14] |  |  |  |  | fraction fluorescent probe displaced, Screen (Acid 14): 0.26; fraction fluorescent probe displaced, Replicate (Acid 14, replicate): 0.10
5 | O=C(C=Cc1ccccc1)NCC1NC(=O)c2cccc(c2)CNC(=O)CCSSCCNC(=O)C(Cc2c[nH]c3ccccc23)NC1=O (stereo not drawn) [X B5 D3 W Acid 91] |  |  | 0.16 | 0.29 | 
6 | O=C1CCSSCCNC(=O)C(Cc2c[nH]c3ccccc23)NC(=O)C2CN(C(=O)c3ccc(Cl)cc3)CCN2C(=O)CCN1 (mixture of isomers) [X B2 D7 W Acid 25] | 0.15 | 0.07 |  |  | 
7 | CC(=O)NC[C@@H]1NC(=O)[C@@H]2CCCN2C(=O)CCSSCCNC(=O)[C@H](Cc2c[nH]c3ccccc23)NC1=O [X-B1-D3-W + A7] ([Mpa]P[Dap](Ac)W-Cysteamide; disulfide 1-C) |  |  |  |  | fraction fluorescent probe displaced [1]: 0.05096
8 | O=C(/C=C/c1ccccc1)NC[C@@H]1NC(=O)CCSSCCNC(=O)CCNC(=O)[C@H](Cc2ccccc2)NC1=O [X D3 F B2 Acid 91] |  |  | 0.0563 | -0.0333 | 
9 | O=C1CCSSCCNC(=O)C2(CCN(C(=O)c3ccc(Cl)cc3)CC2)NC(=O)CCNC(=O)[C@H](Cc2ccccc2)N1 [X F B2 D6 Acid 25] | -0.00813 | -0.03 |  |  | 
10 | O=C1CCNC(=O)[C@H](Cc2ccccc2)NC(=O)[C@H](CNC(=O)c2ccc(Cl)cc2)NC(=O)CCSSCCN1 [X D3 F B2 Acid 25] | -0.00813 | 0.0211 |  |  | 
11 | O=C1CCSSCCNC(=O)C2CN(C(=O)C=Cc3ccccc3)CCN2C(=O)CCNC(=O)C(Cc2ccccc2)N1 (stereo not drawn) [X F B2 D7 Acid 91] |  |  | 0.03 | 0.04 | 
12 | O=C1CCSSCCNC(=O)c2cccc(c2)CNC(=O)C2(CCN(C(=O)c3ccc(Cl)cc3)CC2)NC(=O)C(Cc2ccccc2)N1 (stereo not drawn) [X F D6 B5 Acid 25] | -0.00813 | 0.12 |  |  | 
13 | O=C(C=Cc1ccccc1)NC1CC2C(=O)NCCSSCCC(=O)NC(Cc3c[nH]c4ccccc34)C(=O)N3CCCC(C3)C(=O)N2C1 (stereo not drawn) [X W B4 D5 Acid 91] |  |  | 0.30 | 0.22 | 
14 | O=C(/C=C/c1ccccc1)NC[C@@H]1NC(=O)[C@@H]2CCCN2C(=O)CCSSCCNC(=O)[C@H](Cc2ccccc2)NC1=O [X-B1-D3-F + A91] ([Mpa]P[Dap](X1)F-Cysteamide; disulfide 1-C) |  |  |  |  | fraction fluorescent probe displaced [1]: 0.08311
15 | O=C1CCSSCCNC(=O)C(Cc2c[nH]c3ccccc23)NC(=O)C2CN(C(=O)C=Cc3ccccc3)CCN2C(=O)c2cccc(c2)CN1 (stereo not drawn) [X B5 D7 W Acid 91] |  |  | -0.10 | -0.06 | 
16 | O=C1CCSSCCNC(=O)[C@@H]2CCCN2C(=O)[C@@H]2C[C@H](NC(=O)c3ccc(Cl)s3)CN2C(=O)[C@H](Cc2ccccc2)N1 [X F D5 B1 Acid 14] ([Mpa]F[Pro(4S-NHCO(5-Cl-2-thienyl))]P-Cysteamide; disulfide 1-C) |  |  |  |  | fraction fluorescent probe displaced, Screen (Acid 14): 0.14; fraction fluorescent probe displaced, Replicate (Acid 14, replicate): 0.0465
17 | O=C1CCNC(=O)[C@H](Cc2c[nH]c3ccccc23)NC(=O)C2(CCN(C(=O)c3ccc(Cl)cc3)CC2)NC(=O)CCSSCCN1 [X D6 W B2 Acid 25] | 0.09 | 0.10 |  |  | 
18 | O=C1CCSSCCNC(=O)C2(CCN(C(=O)c3ccc(Cl)s3)CC2)NC(=O)[C@H](Cc2c[nH]c3ccccc23)NC(=O)CCN1 [X B2 W D6 Acid 14] |  |  |  |  | fraction fluorescent probe displaced, Screen (Acid 14): 0.14; fraction fluorescent probe displaced, Replicate (Acid 14, replicate): 0.0465
19 | O=C1CCSSCCNC(=O)[C@H]2CCCN(C2)C(=O)[C@H](Cc2c[nH]c3ccccc23)NC(=O)C2(CCN(C(=O)c3ccc(Cl)cc3)CC2)N1 [X D6 W B4 Acid 25] | 0.28 | 0.22 |  |  | 
20 | O=C1CCSSCCNC(=O)[C@@H]2CCCN2C(=O)[C@H](Cc2c[nH]c3ccccc23)NC(=O)[C@H](CNC(=O)c2ccc(Cl)cc2)N1 [X D3 W B1 Acid 25] ([Mpa][Dap](Benzoyl(4-Cl))WP-Cysteamide; disulfide 1-C) | 0.12 | 0.22 |  |  | 
21 | O=C1CCSSCCNC(=O)[C@@H]2C[C@H](NC(=O)c3ccc(Cl)cc3)CN2C(=O)c2cccc(c2)CNC(=O)[C@H](Cc2ccccc2)N1 [X F B5 D5 Acid 25] | 0.0244 | -0.00432 |  |  | 
22 | O=C1CCNC(=O)C2(CCN(C(=O)/C=C/c3ccccc3)CC2)NC(=O)CCSSCCNC(=O)[C@H](Cc2c[nH]c3ccccc23)N1 [X D6 B2 W Acid 91] |  |  | 0.19 | 0.09 | 
23 | O=C1CCSSCCNC(=O)c2cccc(c2)CNC(=O)C(Cc2ccccc2)NC(=O)C2(CCN(C(=O)C=Cc3ccccc3)CC2)N1 (stereo not drawn) [X D6 F B5 Acid 91] |  |  | -0.05 | -0.00827 | 
24 | O=C1N[C@@H](Cc2ccccc2)C(=O)NC2(CCN(C(=O)/C=C/c3ccccc3)CC2)C(=O)NCCSSCCC(=O)N2CCC[C@H]1C2 [X B4 F D6 + Acid 91] |  |  |  |  | fraction fluorescent probe displaced (crude reaction of macrocycle scaffold with Acid 91, (initial screen)): 0.08; fraction fluorescent probe displaced (crude reaction of macrocycle scaffold with Acid 91, replicate): 0.0168
25 | O=C(COc1ccccc1)NC[C@@H]1NC(=O)[C@@H]2CCCN2C(=O)CCSSCCNC(=O)[C@H](Cc2c[nH]c3ccccc23)NC1=O [X-B1-D3-W + A13] ([Mpa]P[Dap](Phenoxyacetyl)W-Cysteamide; disulfide 1-C) |  |  |  |  | fraction fluorescent probe displaced [1]: 0.1956
26 | O=C(N[C@H]1C[C@H]2C(=O)N[C@@H](Cc3c[nH]c4ccccc34)C(=O)N3CCC[C@H]3C(=O)NCCSSCCC(=O)N2C1)c1ccc(Cl)s1 [X D5 W B1 Acid 14] ([Mpa][Pro(4S-NHCO(5-Cl-2-thienyl))]WP-Cysteamide; disulfide 1-C) |  |  |  |  | fraction fluorescent probe displaced, Screen (Acid 14): 0.23; fraction fluorescent probe displaced, Replicate (Acid 14, replicate): 0.10
27 | O=C1CCSSCCNC(=O)C2(CCN(C(=O)/C=C/c3ccccc3)CC2)NC(=O)CCNC(=O)[C@H](Cc2c[nH]c3ccccc23)N1 [X W B2 D6 Acid 91] |  |  | 0.22 | 0.09 | 
